# Data from patent US11229664B2, “Treatment of myelosuppression” (priority 2012, dated 2022).
# “And” between values parts separate entries of the source, which are not always exact repeats. Equal entries are not always repeated.
# System: platelets
# Experiment: Clinical trial, metastatic pancreatic cancer: platelet count / thrombocytopenia grade
# Type: in vivo, human
# Parameters: Platelet count at start of cycle, Cycle 1: unit not given here; Platelet count at start of cycle, Cycle 4 / Platelet count: unit: ×10^3/μl blood
# Description: Male and non-pregnant, non-lactating, female patients, aged 18 to 75, with histologically confirmed metastatic adenocarcinoma of the pancreas were enrolled in the trial. […] Treatment consisted of a series of 28-day cycles, wherein the last day of one cycle (e.g., day 28, cycle 1) was immediately followed by the first day of the next cycle (e.g., day 1, cycle 2). […] Nab-paclitaxel and gemcitabine therapy was given as described in the prescribing information for Abraxane® and Gemzar®. See also, Von Hoff et al., 2011, J. […] As a substantially non-anticoagulant heparinoid, ODSH can be administered at a dose that is greater than the fully anticoagulant dose of unfractionated heparin, without concern for anticoagulant effect, as shown in the Results below. An initial run-in period was conducted in which ten patients were treated with the gemcitabine, nab-paclitaxel, and ODSH regimen described above. After all ten patients had completed at least one 28-day cycle, the data were reviewed and an open-label randomized study initiated, with two arms (ODSH arm and Control arm). In the ODSH arm, the dosing regimen was the same as in the run-in period (gemcitabine, nab-paclitaxel, and ODSH). In the Control arm, patients were given the same gemcitabine and nab-paclitaxel regimen as in the run-in period, but without ODSH. […] Platelet counts, total white blood cell counts, and absolute neutrophil counts were performed. Grading of thrombocytopenia and/or neutropenia was performed according to the following standards: [table]
# [1] = ODSH 4 mg/kg bolus + 0.375 mg/kg/hr 48 h, adjunct to gemcitabine/nab-paclitaxel
# [2] = ODSH adjunct to gemcitabine/nab-paclitaxel
# [3] = ODSH adjunctive to gemcitabine and nab-paclitaxel, blood drawn before treatment that day, individual patients
# [4] = all samples (FIG. 10A), ODSH adjunct to gemcitabine/nab-paclitaxel
# [5] = day 15, first cycle, ODSH adjunct to gemcitabine/nab-paclitaxel
substance,measurement,setting,value
"substantially 2-O, 3-O desulfated heparin [ODSH]",Patients with platelet count at beginning of fourth cycle greater than at beginning of first cycle,[1],9 out of 10
same,Patients with platelet count at beginning of third cycle greater than at beginning of first cycle,[1],Eight out of 9
same,Patients with platelet count at beginning of second cycle greater than at beginning of first cycle,"ODSH 4 mg/kg bolus + 0.375 mg/kg/hr 48 h, days 1, 8, 15 of 28-day cycles, adjunct to gemcitabine/nab-paclitaxel",Ten out of 10 and 10/10
same,Patients exhibiting thrombocytopenia at the start of the second cycle,[2],None
same,Patients exhibiting thrombocytopenia at the start of the third cycle,[2],one of 8
same,Patients with platelet counts higher at the beginning of cycle 3 than at the beginning of cycle 2,[2],6/9
same,"Platelet Count, Cycle 1 Day 1","ODSH adjunctive to gemcitabine and nab-paclitaxel, blood drawn before treatment administration (before any chemotherapy), individual patients",313 ×10^3/μl blood and 264 ×10^3/μl blood and 191 ×10^3/μl blood and 274 ×10^3/μl blood and 276 ×10^3/μl blood and 120 ×10^3/μl blood and 271 ×10^3/μl blood and 342 ×10^3/μl blood and 429 ×10^3/μl blood and 180 ×10^3/μl blood
same,"Platelet Count, Cycle 1 Day 8",[3],205 ×10^3/μl blood and 167 ×10^3/μl blood and 108 ×10^3/μl blood and 150 ×10^3/μl blood and 239 ×10^3/μl blood and 86 ×10^3/μl blood (2×) and 230 ×10^3/μl blood and 206 ×10^3/μl blood and 214 ×10^3/μl blood
same,"Platelet Count, Cycle 1 Day 15",[3],135 ×10^3/μl blood and 178 ×10^3/μl blood and 108 ×10^3/μl blood and 75 ×10^3/μl blood and 220 ×10^3/μl blood and 76 ×10^3/μl blood and 181 ×10^3/μl blood and 134 ×10^3/μl blood and 260 ×10^3/μl blood and 63 ×10^3/μl blood
same,"Platelet Count, Cycle 2 Day 1",[3],419 ×10^3/μl blood and 322 ×10^3/μl blood and 312 ×10^3/μl blood and 574 ×10^3/μl blood and 445 ×10^3/μl blood and 175 ×10^3/μl blood and 417 ×10^3/μl blood and 614 ×10^3/μl blood and 532 ×10^3/μl blood and 274 ×10^3/μl blood
same,"Platelet Count, Cycle 2 Day 8",[3],434 ×10^3/μl blood and 336 ×10^3/μl blood and 241 ×10^3/μl blood and 424 ×10^3/μl blood and 05 ×10^3/μl blood and 83 ×10^3/μl blood and 402 ×10^3/μl blood and 375 ×10^3/μl blood and 257 ×10^3/μl blood and 95 ×10^3/μl blood
same,"Platelet Count, Cycle 2 Day 15",[3],209 ×10^3/μl blood and 207 ×10^3/μl blood and 132 ×10^3/μl blood and 167 ×10^3/μl blood and 186 ×10^3/μl blood (2×) and 70 ×10^3/μl blood and 178 ×10^3/μl blood and 170 ×10^3/μl blood and 54 ×10^3/μl blood
same,"Platelet Count, Cycle 3 Day 1",[3],510 ×10^3/μl blood and 327 ×10^3/μl blood and 362 ×10^3/μl blood and 655 ×10^3/μl blood and 418 ×10^3/μl blood and 123 ×10^3/μl blood and 487 ×10^3/μl blood and 628 ×10^3/μl blood and 387 ×10^3/μl blood and −361 ×10^3/μl blood
same,"Platelet Count, Cycle 3 Day 8",[3],435 ×10^3/μl blood and 325 ×10^3/μl blood and 362 ×10^3/μl blood (2×) and 388 ×10^3/μl blood and 223 ×10^3/μl blood and 119 ×10^3/μl blood and 355 ×10^3/μl blood and 371 ×10^3/μl blood and 179 ×10^3/μl blood
same,"Platelet Count, Cycle 3 Day 15",[3],207 ×10^3/μl blood and 170 ×10^3/μl blood and 163 ×10^3/μl blood and 188 ×10^3/μl blood and 171 ×10^3/μl blood (2×) and 63 ×10^3/μl blood and 172 ×10^3/μl blood and 189 ×10^3/μl blood and 71 ×10^3/μl blood
same,"Platelet Count, Cycle 4 Day 1",[3],586 ×10^3/μl blood and 402 ×10^3/μl blood and 292 ×10^3/μl blood and 478 ×10^3/μl blood and 667 ×10^3/μl blood and 184 ×10^3/μl blood and 406 ×10^3/μl blood and 626 ×10^3/μl blood and 382 ×10^3/μl blood and 387 ×10^3/μl blood
same,"Platelet Count, Cycle 4 Day 8",[3],464 ×10^3/μl blood and 339 ×10^3/μl blood and 355 ×10^3/μl blood and 468 ×10^3/μl blood and 193 ×10^3/μl blood and 188 ×10^3/μl blood and 507 ×10^3/μl blood and 448 ×10^3/μl blood and 185 ×10^3/μl blood
same,"Platelet Count, Cycle 4 Day 15",[3],203 ×10^3/μl blood and 170 ×10^3/μl blood and 140 ×10^3/μl blood and 163 ×10^3/μl blood and 149 ×10^3/μl blood and 129 ×10^3/μl blood and 339 ×10^3/μl blood and 169 ×10^3/μl blood and 202 ×10^3/μl blood and 78 ×10^3/μl blood
same,"Platelet Count, Cycle 5 Day 1",[3],499 ×10^3/μl blood and 351 ×10^3/μl blood and 266 ×10^3/μl blood and 389 ×10^3/μl blood and 275 ×10^3/μl blood and 106 ×10^3/μl blood and 512 ×10^3/μl blood and 607 ×10^3/μl blood and 427 ×10^3/μl blood and −288 ×10^3/μl blood
same,"Platelet Count, Cycle 5 Day 8",[3],231 ×10^3/μl blood and 288 ×10^3/μl blood and 241 ×10^3/μl blood and 325 ×10^3/μl blood and 192 ×10^3/μl blood and 94 ×10^3/μl blood and 378 ×10^3/μl blood and 377 ×10^3/μl blood and 403 ×10^3/μl blood and 188 ×10^3/μl blood
same,"Platelet Count, Cycle 5 Day 15",[3],132 ×10^3/μl blood and 169 ×10^3/μl blood and 153 ×10^3/μl blood and 109 ×10^3/μl blood and 58 ×10^3/μl blood and 193 ×10^3/μl blood and 194 ×10^3/μl blood and 72 ×10^3/μl blood
same,"Platelet Count, Cycle 6 Day 1",[3],288 ×10^3/μl blood and 370 ×10^3/μl blood and 294 ×10^3/μl blood and 489 ×10^3/μl blood and 114 ×10^3/μl blood and 371 ×10^3/μl blood and 503 ×10^3/μl blood and 275 ×10^3/μl blood
same,"Platelet Count, Cycle 6 Day 8",[3],384 ×10^3/μl blood and 321 ×10^3/μl blood and 207 ×10^3/μl blood and 336 ×10^3/μl blood and 85 ×10^3/μl blood and 313 ×10^3/μl blood and 493 ×10^3/μl blood and 148 ×10^3/μl blood
same,"Platelet Count, Cycle 6 Day 15",[3],169 ×10^3/μl blood and 162 ×10^3/μl blood and 128 ×10^3/μl blood and 102 ×10^3/μl blood and 54 ×10^3/μl blood and 338 ×10^3/μl blood and 164 ×10^3/μl blood and 72 ×10^3/μl blood
same,Mean and median platelet counts at day 15 of treatment cycles 2 and 3,[4],remained in the normal range
same,Mean and median platelet counts on the first day of treatment cycles 2 and 3,[4],"above 150,000"
same,"Platelet count at start of cycle, Cycle 1","day 1 of cycle 1, before any chemotherapy, ODSH adjunctive to gemcitabine and nab-paclitaxel, individual patients",264 and 191 and 274 and 276 and 120 and 271 and 342 and 429 and 180 and 313
same,"Platelet count at start of cycle, Cycle 2","day 1 of cycle 2, ODSH adjunctive to gemcitabine and nab-paclitaxel, individual patients",322 and 312 and 574 and 445 and 175 and 417 and 614 and 537 and 274 and 419
same,"Platelet count at start of cycle, Cycle 3","day 1 of cycle 3, ODSH adjunctive to gemcitabine and nab-paclitaxel, individual patients",327 and 362 and 655 and 418 and 123 and 628 and 387 and 361 and 510
same,"Platelet count at start of cycle, Cycle 4","day 1 of cycle 4, ODSH adjunctive to gemcitabine and nab-paclitaxel, individual patients",402 and 292 and 478 and 667 and 184 and 406 and 626 and 382 and 387 and 586
same,"Platelet count at start of cycle, Cycle 5","day 1 of cycle 5, ODSH adjunctive to gemcitabine and nab-paclitaxel, individual patients",351 and 389 and 275 and 512 and 427 and 288 and 499
same,"Platelet count at start of cycle, Cycle 6","day 1 of cycle 6, ODSH adjunctive to gemcitabine and nab-paclitaxel, individual patients",489 and 371 and 503 and 275 and 288
same,"Platelet count at start of cycle, Cycle 7","day 1 of cycle 7, ODSH adjunctive to gemcitabine and nab-paclitaxel, individual patients",454
same,Patients with no more than mild thrombocytopenia after two doses of treatment,[5],90%
same,Patients with no thrombocytopenia after two doses of treatment,[5],40%
same,Patients with no thrombocytopenia after five doses of treatment,"day 15 of cycle 2, ODSH adjunct to gemcitabine/nab-paclitaxel",7 out of 10
same,Patients thrombocytopenic at the beginning of cycles 2 and 3,"mild (Grade 1), after three or six doses of gemcitabine and nab-paclitaxel with ODSH",one
same,Platelet count,"open-label randomized trial, per arm, Cycle 1 Day 1",248
